Laboratory results: US4060652A (priority 1976, dated 1977)
Entries after “also recorded” stand apart in the source; their conditions may differ.

Legend:
patients = experiment: Surgical operations, first series (maintenance of relaxation); format: in vivo, patients (human)
Method: We tried Tercuronium as a muscle relaxant in surgical operations on the abdominal and thoracic organs in 150 patients. The operations were carried out in conditions of intubation narcosis and artificial lung ventilation. Ether, fluorothane, nitrous oxide and barbiturates were used as anesthetics.
In the first series of observations (120 operations) Tercuronium was used as the main muscle relaxant for maintaining relaxation of the muscles. Tracheal intubation was carried out with muscle relaxation induced by dithilin-group agents. […] Complete muscle relaxation with the absence of active respiration continued on an average of 40 minutes. If, with the first signs of restoration of the muscle tone, we made another intravenous injection of Tercuronium in a dose constituting 1/3 to 1/2 of the initial one, complete relaxation continued for further 60 - 90 minutes.

[1] = system: M-cholinoreceptors and conduction in parasympathetic ganglia; experiment: Effect on M-cholinoreceptors and parasympathetic ganglia, n. vagus stimulation in cats; format: in vivo
Method: Experiments were carried out on narcotized cats (chloralose and urethane, intraperitoneally).
In experiments on five animals, the left nervus vagus was cut. Platinum electrodes were placed on the peripherial part to stimulate the nerve with pulses of 0.1 msec and an amplitude of 5 V. The nerve was stimulated every 10 seconds at a frequency of 30 Hz. The pulse rate was recorded (ECG) and the blood pressure in the femoral artery was measured with a mercury pressure gauge.

rabbits [2] = experiment: Head-drop test in non-narcotized rabbits; format: in vivo
Method: In experiments (a total of twenty) on non-narcotized rabbits, the head-drop dose (HDD) was 0.022 ± 0.009 micromole/kg A complete blocking effect developed 1.5 to 2 minutes after administration of Tercuronium and persisted for 3 to 5 minutes. A few minutes later, the animal behaviour normalized. The same effect was attained with 0.18 ± 0.02 micromole/kg of α-tubocurarin (6 experiments) and 0.018 ± 0.001 mcM/kg of pancuronium (6 experiments). The time of onset and the duration of the blocking effect with all the three preparations were the same.

rabbits [3] = experiment: Allergizing action, Arthus-Sakharov phenomenon in rabbits; format: in vivo; conditions: seven subcutaneous injections at 5-day intervals
Method: In order to study the allergizing action of Tercuronium, we used the Arthus-Sakharov phenomenon. Experiments were carried on three rabbits. Tercuronium was injected to each rabbit in a dose of […] subcutaneously on the left side of the back in a volume of 0.2 to 0.25 ml, and 1 ml of horse serum was injected into the right side of the back (also subcutaneously). We made seven injections at 5-day in tervals. Horse serum alone was injected to the fourth (control) rabbit in the same order.

pigeons = experiment: Paralysis in pigeons; format: in vivo
[4] = Lethality by paralysis of respiratory muscles in mice; conditions: mouse, in vivo, iv
Text: (§1) In experiments on albino mice, the dose of Tercuronium injected into the tail vein, that inhibited the symptom of turning from the lateral position in 50 percent of mice (ED50) was 0.06 mcM/kg (18 experiments); and 50 percent of mice perished from paralysis of the respiratory muscles (LD50) following an injection of 0.09 mcM/kg of Tercuronium.

[5] = system: phrenico-diaphragm preparations; experiment: Block of nervomuscular conduction in isolated phrenico-diaphragm preparations; parameters: species or system rats; conditions: rat, isolated by the Bulbring method
Text: In experiments on phrenico-diaphragm preparations of rats, isolated by the Bulbring method, the block of the nervomuscular conduction developed under the action of Tercuronium in a concentration of 2 × 10^-6 m/litre.

albino mice = experiment: Inhibition of turning from the lateral position in mice; format: in vivo
Text: as §1

[6] = system: nervomuscular conduction and arterial pressure; experiment: Effect of narcotics on action in decerebrated cats; format: in vivo
Text: The action of ether, fluorothane, and sodium thiopental (given in narcotic concentrations) on the nervomuscular blocking activity and depressive effect (action on the arterial pressure) of Tercuronium, as well as on the neostigmin-Tercuronium antagonism was studied on decerebrated cats.

respiration = experiment: Inhibition of respiration in narcotized and decerebrated cats (and rabbits); format: in vivo
Text: This developed simultaneously with the block of the nervomuscular conduction in the anterior tibial muscle. […] The same result was obtained in experiments on rabbits. The ratio of LD50 in experiments on rabbits and mice, as specified above, also provides data on the that Tercuronium produces on respiration.

[7] = system: nervomuscular conduction, vegetative ganglia, circulation; experiment: Overall conclusions from animal experiments; format: in vivo, animals
Text: The results of the pharmacological studies of the proposed muscle relaxant Tercuronium, as compared with the known muscle relaxants, enable us to make the following conclusions.

[8] = system: blood coagulation and erythrocytes; experiment: Effect on blood coagulation rate and resistance of erythrocytes; format: in vivo; conditions: two rabbits, two narcotized cats
[9] = system: nervomuscular conduction, anterior tibial muscle; experiment: Nervomuscular block in cats, indirect stimulation of anterior tibial muscle; format: in vivo
Method: The preparation was studied in acute experiments on cats, rabbits, mice and pigeons, in experiments on phrenico-diaphragm preparations of rats, and also on the straight muscle of a frog abdomen. The properties of Tercuronium were compared with those of α-tubocurarin and pancuronium.
Cats were narcotized (with chloralose, 50 mg per kg body weight, and urethane, 500 mg/kg, intraperitoneally) or decerebrated at the quadrigeminal bodies level. The lungs were ventilated artificially whenever necessary. Contractions of the anterior tibial muscle were recorded in isotonic concitions in response to electric stimulation of the peripheral part of n. peroneus with supramaximum pulses of 0.1 msec at a frequency of 0.1-100 Hz.

[10] = deep fluorothane-induced anesthesia
[11] = ether, fluorothane, sodium thiopental
[12] = 0.08 micromole per kg intravenous

SMILES: CC[N+](CC)(CC)c1ccc(-c2ccc(-c3ccc([N+](CC)(CC)CC)cc3)cc2)cc1 [Tercuronium, p,p"-bis-triethylammonio-n-terphenyl dibenzenesulphonate]
- arterial pressure and frequency of heart contractions (patients; 0.12 - 0.15 mg/kg): No changes in arterial pressure ar frequency of heart contractions, that could be attributed to the injection of Tercuronium, were observed
- duration of complete muscle relaxation with absence of active respiration (patients; 0.12 - 0.15 mg/kg intravenous, average): 40 min
- electromyographic character of action (patients; electromyographic analysis): nondepolarizing muscle relaxant
- postoperative complications (patients; postoperative period): did not observe any case of insufficient efficacy of proserpin, muscular atomia, or insufficiency of active respiration, or recurarization
- restoration of active respiration by proserpin (patients; proserpin 2.5 mg at end of operation): always resulted in quick (within a few minutes) restoration of active respiration in full volume
- response of n. vagus to stimulation ([1]; 0.1 and 1.0 mcM/kg): the response of n. vagus to stimulation did not change
- heart contractility without stimulation of n. vagus ([1]; 0.1 and 1.0 mcM/kg intravenous): heart contractility was not affected
- effect on parasympathetic part of the vegetative nerve system ([1]; 20 times the myoparalytic dose): does not produce any effect on the parasympathetic part of the vegetative nerve system
- bronchospasm or salivation ([1]; very large dose, other experiments on animals): no bronchospasm or salivation were observed
- ED (head drop) (rabbits [2]; Oryctolagus cuniculus, read-out: head-drop dose (HDD)): 0.022 ± 0.009 µmol/kg
- time of onset and duration of blocking effect, comparison (rabbits [2]; all three preparations): the same
- blocking effect compared with pancuronium (rabbits [2]; rabbits): somewhat lower than that of pancuronium
- blocking effect relative to α-tubocurarin (rabbits [2]; rabbits): eight
- local allergic reaction (rabbits [3]): no reaction
- effect in pigeons (pigeons; 0.2 mcM/kg intravenous): weak paralysis developed; also recorded: shows the nondepolarizing effect as well
- ED50 (pigeons; Columbidae, pigeons, intravenous): 0.2 µmol/kg
- LD50 [4]: 0.09 µmol/kg
- selectivity ratio ([4]; read-out: width of the muscle relaxing action (LD50/ED50)): 1.5
- concentration blocking nervomuscular conduction [5]: 2 × 10^-6 m/litre
- ED50 (albino mice; Mus musculus, iv): 0.06 µmol/kg
- myoparalytic action compared with pancuronium and α-tubocurarin (albino mice; mice): several times lower than that of pancuronium and several times higher than that of α-tubocurarin
- interaction with fluorothane on blood pressure ([6]; decerebrated cats): did not observe mutual strengthening of fluorothane and Tercuronium action on blood pressure
- action on arterial pressure in ether narcosis ([6]; deep ether-induced narcosis): did not substantially change
- depressive effect in fluorothane anesthesia [6, 10]: failed to increase
- myoparalytic effect in fluorothane anesthesia [6, 10]: intensified insignificantly
- compatibility with anesthetic agents [6, 11]: quite compatible with anesthetic agents such as ether, fluorothane, and sodium thiopental
- neostigmin antagonism against background of narcotics [6, 11]: persisted against the back ground of narcotics; also recorded: fully preserved
- curare-like activity and action on blood pressure with sodium thiopental ([6]; sodium thiopental 10 mg/kg): did not change
- bronchospasm (respiration; 200-1000-fold dose, artificial ventilation, cats, same in rabbits): bronchospasm did not develop
- inhibition of respiration by blocking doses, comparison (respiration; from LD50 to ED50 ratio): equally inhibit respiration
- effect on respiration (respiration; narcotized and decerebrated cats): respiration was inhibited and stopped by a curare-like paralysis of the diaphragm; also recorded: respiration was restored simultaneously with the restoration of the muscle contraction
- blood pressure at ten-fold dose ([7]; cats, ten-fold dose): only slightly reduced
- nervomuscular blocking activity compared with pancuronium ([7]; experiments on animals): somewhat lower than of pancuronium
- histamine, vegetative ganglia, blood pressure and heart frequency ([7]; myoparalytic dose): does not produce histamine, does not block vegetative ganglia or affect the blood pressure and frequency of heart contractions
- frequency of heart contraction ([7]; ten times the myoparalytic dose): does not affect the frequency of heart contraction
- blood coagulation rate and resistance of the erythrocytes [8]: did not discover any effect
- dependence of block on stimulation frequency [9]: more manifest with increasing frequency of pulse stimuli; also recorded: tetanization of the motor nerve at a frequency of 50 to 100 Hz produces a pessimal reaction in the muscle
- influence of other agents on action [9]: lessened by the action of neostigmin, succinylcholine, decamethonium, and acetylcholine and strengthened by α-tubocurarin
- mean duration of effect [9]: eight
- block of nervomuscular conduction [9, 12]: 95-100%
- time to block following injection [9, 12]: 40 to 60 s
- time to complete restoration of muscle contractility ([9]; after injection): 10 ± 1.5 min
- dose blocking nervomuscular conduction (95-100 percent) ([9]; intravenous, 0.1 Hz): 0.08 ± 0.002 micromole per kg
